Experimental data reported in patent US20190290474A1, “DRUG RELEASE DEVICE AND USE” (JUROX PTY LTD, priority 2016, published 2019).

Columns and labels:
[1] = Example 13: progesterone dissolution from cut devices in 250 mL acetone, HPLC/UV; type: physicochemical; details: individual device
Method: The combined mass of each reagent bottle and solid contents was recorded (Mi) and each bottle was then charged with 250 mL of acetone. Reagent bottles were heated to 35° C. in a temperature controlled water bath and stirred using a submersible multipoint stirrer plate.
Reagent bottles were removed from the water bath at times 2, 4.5 and 47.5 hours after the commencement of stirring. All residual water from the temperature controlled water bath was removed from the outside of the container. The total mass of the dissolution vessel, drug product and drug product solution was then recorded (Mf) and the reagent bottles were left at ambient temperature. The initial mass (of components prior to solvent addition) was subtracted from the final mass to give the solvent mass at each time point.
The temperature of each solution of device extracts was recorded at 2.5, 5 and 48 hours after stirring commenced and a 2 mL aliquot of solution was sampled immediately following the temperature reading. The aliquot of extracts were diluted in 100 mL of 50:50 acetonitrile/water and a sample of the diluted solution was filtered into HPLC vials
The mass of solvent was converted to its corresponding volume using the literature density of acetone and equation below.
A progesterone dissolution profile and final content for each implant was be obtained using a HPLC/UV method for progesterone quantification in IVD and CIDR

[2] = aqueous pH 7 buffer; cited from earlier work

For CC(=O)[C@H]1CC[C@H]2[C@@H]3CCC4=CC(=O)CC[C@]4(C)[C@H]3CC[C@]12C [Progesterone], the “Dissolution of progesterone, percentage of the dose concentration (1.38 g)” value ([1]; 2.5 Hours) was 100.8%, the “Dissolution of progesterone, percentage of the dose concentration (1.38 g)” value ([1]; 5 Hours) was 104.1% and the “Dissolution of progesterone, percentage of the dose concentration (1.38 g)” value ([1]; 48 Hours) was 103.2%. For the same molecule, the solubility of progesterone [2] was < 100 µg/mL.
